This passage reports melting point results from US20040014972A1, “Arylpiperazine derivatives and their use as psychotropic agents” (priority 2000, published 2004).

One may read the melting point as the temperature of the solid-liquid transition.

With `O=C(O)/C=C/C(=O)O.OC(CCCN1CCN(c2cccc3cccnc23)CC1)c1ccc(F)cc1` (stereo not drawn), the melting point was in the range of 145 to 146 °C.

The compound `Cl.Cl.O=C(CCCN1CCN(c2cccc3[nH]ccc23)CC1)c1ccc(F)cc1` registered a melting point of 233 to 234 °C. The compound `Cl.Cl.Cl.O.O.O=C(CCCN1CCN(c2cccc3cccnc23)CC1)c1ccc(F)cc1` (hydrate or solvate) registered a melting point of 119 to 120 °C.
